Reference: ChEMBL document CHEMBL4699525, “Design and synthesis of new indanol-1,2,3-triazole derivatives as potent antitubercular and antimicrobial agents” (Bioorg Med Chem Lett, 2020)
≈ marks a conversion by molar mass, not a printed value. Calls of active or inactive are those of the source. The rule behind the calls is not given here.

How the values were obtained:
[1] = tested on: Salmonella enterica subsp. enterica serovar Abony; assay: Antibacterial activity against Salmonella abony assessed as inhibition of bacterial growth incubated for 24 hrs by agar well diffusion method; format: functional
Escherichia coli = assay: Antibacterial activity against Escherichia coli assessed as inhibition of bacterial growth incubated for 24 hrs by agar well diffusion method; format: functional
Klebsiella aerogenes [2] = assay: Antibacterial activity against Enterobacter aerogenes assessed as inhibition of bacterial growth incubated for 24 hrs by agar well diffusion method; format: functional
Aspergillus niger [3] = assay: Antifungal activity against Aspergillus niger assessed as inhibition of […] growth incubated for overnight by CLSI based method; format: functional
Shigella boydii [4] = assay: Antibacterial activity against Shigella boydii assessed as inhibition of bacterial growth incubated for overnight by CLSI based method; format: functional
Shigella boydii [5] = assay: Antibacterial activity against Shigella boydii assessed as inhibition of bacterial growth incubated for 24 hrs by agar well diffusion method; format: functional
[6] = molecular target: T1, Enoyl-[acyl-carrier-protein] reductase [NADH] (Mycobacterium tuberculosis) (UniProt P9WGR1); assay: Inhibition of InhA in Mycobacterium tuberculosis H37Rv assessed antitubercular activity by measuring inhibition of bacterial growth incubated for 7 days by MABA assay; conditions: time 7.0 day
T1 sequence (whole entry): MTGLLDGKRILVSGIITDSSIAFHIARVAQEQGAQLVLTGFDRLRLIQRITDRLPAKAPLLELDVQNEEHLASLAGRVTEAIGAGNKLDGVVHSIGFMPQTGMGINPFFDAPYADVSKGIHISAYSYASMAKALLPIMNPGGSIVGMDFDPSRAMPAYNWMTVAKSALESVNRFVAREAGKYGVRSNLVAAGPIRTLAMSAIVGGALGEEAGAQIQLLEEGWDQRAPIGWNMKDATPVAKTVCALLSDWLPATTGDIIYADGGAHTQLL

Staphylococcus aureus [7] = assay: Antibacterial activity against Staphylococcus aureus assessed as inhibition of bacterial growth incubated for 24 hrs by agar well diffusion method; format: functional
Klebsiella aerogenes [8] = assay: Antibacterial activity against Enterobacter aerogenes assessed as inhibition of bacterial growth incubated for overnight by CLSI based method; format: functional
Aspergillus niger [9] = assay: Antifungal activity against Aspergillus niger assessed as inhibition of fungal growth incubated for 24 hrs by agar well diffusion method; format: functional
Candida albicans [10] = assay: Antifungal activity against Candida albicans assessed as inhibition of […] growth incubated for overnight by CLSI based method; format: functional
Saccharomyces cerevisiae [11] = assay: Antifungal activity against Saccharomyces cerevisiae assessed as inhibition of […] growth incubated for overnight by CLSI based method; format: functional
Candida albicans [12] = assay: Antifungal activity against Candida albicans assessed as inhibition of fungal growth incubated for 24 hrs by agar well diffusion method; format: functional
Salmonella typhi = assay: Antibacterial activity against Salmonella typhi assessed as inhibition of bacterial growth incubated for 24 hrs by agar well diffusion method; format: functional, Salmonella enterica subsp. enterica serovar Typhi
Bacillus subtilis = assay: Antibacterial activity against Bacillus subtilis assessed as inhibition of bacterial growth incubated for 24 hrs by agar well diffusion method; format: functional
Pseudomonas aeruginosa = assay: Antibacterial activity against Pseudomonas aeruginosa assessed as inhibition of bacterial growth incubated for 24 hrs by agar well diffusion method; format: functional
Bacillus cereus = assay: Antibacterial activity against Bacillus cereus assessed as inhibition of bacterial growth incubated for 24 hrs by agar well diffusion method; format: functional
Saccharomyces cerevisiae [13] = assay: Antifungal activity against Saccharomyces cerevisiae assessed as inhibition of fungal growth incubated for 24 hrs by agar well diffusion method; format: functional
Staphylococcus aureus [14] = assay: Antibacterial activity against Staphylococcus aureus assessed as inhibition of bacterial growth incubated for overnight by CLSI based method; format: functional
[15] = Cytotoxicity against human HEK293 cells assessed as inhibition of cell growth at 25 uM incubated for 48 hrs by MTT assay; format: cell-based
[16] = Salmonella enterica subsp. enterica serovar Typhi

With `O=C(Cn1cc(COc2ccc3c(c2)CCC3)nn1)Nc1cccc([N+](=O)[O-])c1` the “diameter of the inhibition zone (DIZ)” value [1] was 10 mm, the “diameter of the inhibition zone (DIZ)” value (Escherichia coli) was 10 mm and the “diameter of the inhibition zone (DIZ)” value (Klebsiella aerogenes [2]) was 10 mm. For the same compound, the MIC (Aspergillus niger [3]) was 220 µg/mL (≈ 559 µM), the MIC (Shigella boydii [4]) was 140 µg/mL (≈ 356 µM) and the “diameter of the inhibition zone (DIZ)” value (Shigella boydii [5]) was 10 mm. The MIC [6] was greater than 25 µM, the “diameter of the inhibition zone (DIZ)” value (Staphylococcus aureus [7]) was 10 mm and the MIC (Klebsiella aerogenes [8]) was 145 µg/mL (≈ 369 µM). For the same compound, the “diameter of the inhibition zone (DIZ)” value (Aspergillus niger [9]) was 5 mm, the MIC (Candida albicans [10]) was 150 µg/mL (≈ 381 µM) and the MIC (Saccharomyces cerevisiae [11]) was 135 µg/mL (≈ 343 µM). For the same compound, the “diameter of the inhibition zone (DIZ)” value (Candida albicans [12]) was 10 mm, the “diameter of the inhibition zone (DIZ)” value (Salmonella typhi) was 10 mm and the “diameter of the inhibition zone (DIZ)” value (Bacillus subtilis) was 11 mm. The “diameter of the inhibition zone (DIZ)” value (Pseudomonas aeruginosa) was 6 mm, the “diameter of the inhibition zone (DIZ)” value (Bacillus cereus) was 12 mm and the “diameter of the inhibition zone (DIZ)” value (Saccharomyces cerevisiae [13]) was 9 mm. The MIC (Staphylococcus aureus [14]) was 140 µg/mL (≈ 356 µM).

With `O=[N+]([O-])c1cccc(-n2cc(COc3ccc4c(c3)CCC4)nn2)c1` the “diameter of the inhibition zone (DIZ)” value [1] was 8 mm, the “diameter of the inhibition zone (DIZ)” value (Escherichia coli) was 12 mm and the “diameter of the inhibition zone (DIZ)” value (Klebsiella aerogenes [2]) was 14 mm. The MIC (Aspergillus niger [3]) was 220 µg/mL (≈ 654 µM), the MIC (Shigella boydii [4]) was 90 µg/mL (≈ 268 µM) and the “diameter of the inhibition zone (DIZ)” value (Shigella boydii [5]) was 10 mm. The MIC [6] was greater than 25 µM, the “diameter of the inhibition zone (DIZ)” value (Staphylococcus aureus [7]) was 8 mm and the MIC (Klebsiella aerogenes [8]) was 70 µg/mL (≈ 208 µM). For the same compound, the “diameter of the inhibition zone (DIZ)” value (Aspergillus niger [9]) was 6 mm, the MIC (Candida albicans [10]) was 125 µg/mL (≈ 372 µM) and the MIC (Saccharomyces cerevisiae [11]) was 180 µg/mL (≈ 535 µM). The “diameter of the inhibition zone (DIZ)” value (Candida albicans [12]) was 12 mm, the “diameter of the inhibition zone (DIZ)” value (Salmonella typhi) was 8 mm and the “diameter of the inhibition zone (DIZ)” value (Bacillus subtilis) was 12 mm. The “diameter of the inhibition zone (DIZ)” value (Pseudomonas aeruginosa) was 11 mm, the “diameter of the inhibition zone (DIZ)” value (Bacillus cereus) was 13 mm and the “diameter of the inhibition zone (DIZ)” value (Saccharomyces cerevisiae [13]) was 7 mm. The MIC (Staphylococcus aureus [14]) was 165 µg/mL (≈ 491 µM).

In the case of `COc1cccc(NC(=O)Cn2cc(COc3ccc4c(c3)CCC4)nn2)c1`, the “diameter of the inhibition zone (DIZ)” value [1] is reported as “inactive”, the “diameter of the inhibition zone (DIZ)” value (Escherichia coli) is reported as “inactive” and the “diameter of the inhibition zone (DIZ)” value (Klebsiella aerogenes [2]) is reported as “inactive”. The “diameter of the inhibition zone (DIZ)” value (Shigella boydii [5]) was 15 mm, the MIC [6] was greater than 25 µM and the “diameter of the inhibition zone (DIZ)” value (Staphylococcus aureus [7]) was “inactive”. The “diameter of the inhibition zone (DIZ)” value (Aspergillus niger [9]) was “inactive”, the “diameter of the inhibition zone (DIZ)” value (Candida albicans [12]) was “inactive” and the “diameter of the inhibition zone (DIZ)” value (Salmonella typhi; [16]) was “inactive”. The “diameter of the inhibition zone (DIZ)” value (Bacillus subtilis) was “inactive”, the “diameter of the inhibition zone (DIZ)” value (Pseudomonas aeruginosa) was “inactive” and the “diameter of the inhibition zone (DIZ)” value (Bacillus cereus) was “inactive”. For the same compound, the “diameter of the inhibition zone (DIZ)” value (Saccharomyces cerevisiae [13]) was “inactive”.

For `Cc1ccc(NC(=O)Cn2cc(COc3ccc4c(c3)CCC4)nn2)c(C)c1`, the “diameter of the inhibition zone (DIZ)” value [1] was “inactive”, the “diameter of the inhibition zone (DIZ)” value (Escherichia coli) was “inactive” and the “diameter of the inhibition zone (DIZ)” value (Klebsiella aerogenes [2]) was “inactive”. For the same compound, the “diameter of the inhibition zone (DIZ)” value (Shigella boydii [5]) was 13 mm, the MIC [6] was greater than 25 µM and the “diameter of the inhibition zone (DIZ)” value (Staphylococcus aureus [7]) was “inactive”. The “diameter of the inhibition zone (DIZ)” value (Aspergillus niger [9]) was “inactive”, the “diameter of the inhibition zone (DIZ)” value (Candida albicans [12]) was “inactive” and the “diameter of the inhibition zone (DIZ)” value (Salmonella typhi; [16]) was “inactive”. The “diameter of the inhibition zone (DIZ)” value (Bacillus subtilis) was “inactive”, the “diameter of the inhibition zone (DIZ)” value (Pseudomonas aeruginosa) was “inactive” and the “diameter of the inhibition zone (DIZ)” value (Bacillus cereus) was “inactive”. For the same compound, the “diameter of the inhibition zone (DIZ)” value (Saccharomyces cerevisiae [13]) was “inactive”.

With `CN(C)[C@@H]1C(O)=C(C(N)=O)C(=O)[C@@]2(O)C(O)=C3C(=O)c4c(O)cccc4[C@@](C)(O)[C@H]3C[C@@H]12` [TETRACYCLINE] the “diameter of the inhibition zone (DIZ)” value [1] was 32 mm, the “diameter of the inhibition zone (DIZ)” value (Escherichia coli) was 29 mm and the “diameter of the inhibition zone (DIZ)” value (Klebsiella aerogenes [2]) was 33 mm. For the same compound, the MIC (Shigella boydii [4]) was 20 µg/mL (≈ 45 µM), the “diameter of the inhibition zone (DIZ)” value (Shigella boydii [5]) was 34 mm and the “diameter of the inhibition zone (DIZ)” value (Staphylococcus aureus [7]) was 29 mm. For the same compound, the MIC (Klebsiella aerogenes [8]) was 30 µg/mL (≈ 67.5 µM), the “diameter of the inhibition zone (DIZ)” value (Salmonella typhi) was 33 mm and the “diameter of the inhibition zone (DIZ)” value (Bacillus subtilis) was 32 mm. For the same compound, the “diameter of the inhibition zone (DIZ)” value (Pseudomonas aeruginosa) was 32 mm, the “diameter of the inhibition zone (DIZ)” value (Bacillus cereus) was 33 mm and the MIC (Staphylococcus aureus [14]) was 20 µg/mL (≈ 45 µM).

With `c1ccc(-n2cc(COc3ccc4c(c3)CCC4)nn2)cc1` the “diameter of the inhibition zone (DIZ)” value [1] was “inactive”, the “diameter of the inhibition zone (DIZ)” value (Escherichia coli) was “inactive” and the “diameter of the inhibition zone (DIZ)” value (Klebsiella aerogenes [2]) was “inactive”. The “diameter of the inhibition zone (DIZ)” value (Shigella boydii [5]) was “inactive”, the MIC [6] was 25 µM (≈ 7.28 µg/mL) and the “diameter of the inhibition zone (DIZ)” value (Staphylococcus aureus [7]) was 7 mm. For the same compound, the “diameter of the inhibition zone (DIZ)” value (Aspergillus niger [9]) was “inactive”, the “diameter of the inhibition zone (DIZ)” value (Candida albicans [12]) was 12 mm and the “diameter of the inhibition zone (DIZ)” value (Salmonella typhi; [16]) was “inactive”. For the same compound, the “diameter of the inhibition zone (DIZ)” value (Bacillus subtilis) was “inactive”, the inhibition at 48 h, 25 µM [15] was 23.4% and the “diameter of the inhibition zone (DIZ)” value (Pseudomonas aeruginosa) was “inactive”. The “diameter of the inhibition zone (DIZ)” value (Bacillus cereus) was “inactive” and the “diameter of the inhibition zone (DIZ)” value (Saccharomyces cerevisiae [13]) was 8 mm.

With `Cc1cc(C)c(-n2cc(COc3ccc4c(c3)CCC4)nn2)c(C)c1` the “diameter of the inhibition zone (DIZ)” value [1] was “inactive”, the “diameter of the inhibition zone (DIZ)” value (Escherichia coli) was “inactive” and the “diameter of the inhibition zone (DIZ)” value (Klebsiella aerogenes [2]) was “inactive”. The “diameter of the inhibition zone (DIZ)” value (Shigella boydii [5]) was “inactive”, the MIC [6] was 6.25 µM (≈ 2.08 µg/mL) and the “diameter of the inhibition zone (DIZ)” value (Staphylococcus aureus [7]) was “inactive”. For the same compound, the “diameter of the inhibition zone (DIZ)” value (Aspergillus niger [9]) was “inactive”, the “diameter of the inhibition zone (DIZ)” value (Candida albicans [12]) was “inactive” and the “diameter of the inhibition zone (DIZ)” value (Salmonella typhi; [16]) was “inactive”. The “diameter of the inhibition zone (DIZ)” value (Bacillus subtilis) was “inactive”, the inhibition at 48 h, 25 µM [15] was 16.6% and the “diameter of the inhibition zone (DIZ)” value (Pseudomonas aeruginosa) was “inactive”. For the same compound, the “diameter of the inhibition zone (DIZ)” value (Bacillus cereus) was “inactive” and the “diameter of the inhibition zone (DIZ)” value (Saccharomyces cerevisiae [13]) was “inactive”.
